Assay results taken from ChEMBL document CHEMBL4616699, “Characterization of Specific N-α-Acetyltransferase 50 (Naa50) Inhibitors Identified Using a DNA Encoded Library” (ACS Med Chem Lett, 2020).

Assays:
[1] = Dissociation constant, pKa of compound; assay type: physicochemical
[2] = molecular target: T1, N-alpha-acetyltransferase 50 (Homo sapiens, UniProt Q9GZZ1); test: Binding affinity to full length human N-terminal His-tagged/GST-tagged Naa50 expressed in Escherichia coli BL21(DE3) cells in by SPR analysis
T1 sequence (Q9GZZ1 whole entry): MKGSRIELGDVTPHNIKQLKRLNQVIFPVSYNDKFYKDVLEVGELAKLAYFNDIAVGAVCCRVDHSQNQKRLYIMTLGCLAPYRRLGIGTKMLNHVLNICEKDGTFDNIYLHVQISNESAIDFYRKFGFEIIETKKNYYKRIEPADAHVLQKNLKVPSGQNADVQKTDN

[3] = molecular target: T2, N-alpha-acetyltransferase 50 (Homo sapiens) (UniProt Q9GZZ1)
T2 sequence (whole entry): T1 sequence (Q9GZZ1 whole entry)
Description: Binding affinity to full length human N-terminal His-tagged/GST-tagged Naa50 expressed in Escherichia coli BL21(DE3) cells assessed as half life for dissociation by SPR analysis

| Structure (SMILES) | pKa [1] | Kd [2] [nM] | T1/2 [3] [min] |
| --- | --- | --- | --- |
| Cc1csc([C@@H]2C[C@H](NC(=O)[C@@H]3CC(=O)N(C)C(=O)N3)CN2C(=O)c2ccc(-c3nnc[nH]3)cc2)n1 | 8.9 | – | – |
| CC(C)(COP(=O)(O)OP(=O)(O)OC[C@H]1O[C@@H](n2cnc3c(N)ncnc32)[C@H](O)[C@@H]1OP(=O)(O)O)[C@@H](O)C(=O)NCCC(=O)NCCS [COENZYME_A] | – | 156 | 0.4 |
| Cc1csc([C@@H]2C[C@H](NC(=O)[C@@H]3CC(=O)N(C)C(=O)N3)CN2C(=O)c2ccc(C(=O)O)cc2)n1 | 3.6 | – | – |
| CC(=O)SCCNC(=O)CCNC(=O)[C@H](O)C(C)(C)COP(=O)(O)OP(=O)(O)OC[C@H]1O[C@@H](n2cnc3c(N)ncnc32)[C@H](O)[C@@H]1OP(=O)(O)O | – | 17.6 | 4 |
| Cc1csc([C@@H]2C[C@H](NC(=O)[C@@H]3CC(=O)N(C)C(=O)N3)CN2C(=O)c2ccc(-c3nn[nH]n3)cc2)n1 | 3.7 | – | – |
| CNC(=O)c1csc([C@@H]2C[C@H](NC(=O)[C@@H]3CC(=O)N(C)C(=O)N3)CN2C(=O)c2ccc(-c3nn[nH]n3)cc2)n1 | 4 | – | – |
